In patent publication US5935954A, “Compounds with improved multi-drug resistance activity” (Vertex Pharmaceuticals Incorporated, priority 1997, dated 1999):
pKi: −log10 of the molar value.

Biological target: FKBP12 (Homo sapiens, UniProt P62942)
Assay: FKBP12 binding assay (inhibition of rotomase activity)
Format: biochemical
Details: apparent Ki
From the text: Preferably, the assay measures inhibition of FKBP12 rotomase activity. Such an assay has also been described by M. W. Harding et al., supra and by J. J. Siekierka et al., supra. In this assay the isomerization of an artificial substrate--N-succinyl-Ala-Ala-Pro-Phe-p-nitroanilide--is followed spectrophotometrically. The assay includes the cis form of the substrate, FKBP12, the inhibitor and chymotrypsin. Chymotrypsin is able to cleave p-nitroanilide from the trans form of the substrate, but not the cis form. Release of p-nitroanilide is measured.
The inhibition of FKBP rotomase activity by the preferred FKBP12 binding compounds present in the compositions of this invention was assayed. In this assay various quantities of FKBP12 binding compound (0nM-10 μM) were added to cis-N-succinyl-Ala-Ala-Pro-Phe-p-nitroanilide in the presence of FKBP12 and chymotrypsin. FKBP12 converts the cis form of the substrate to the trans form. This allows chymotrypsin to cleave p-nitroanilide from the substrate. Release of p-nitroanilide was measured spectrophotometrically. This assay allowed me to measure the change in the first order rate constant of the rotomase activity as a function of FKBP12 binding compound concentration and yielded an estimate of apparent Ki.

FKBP12, sequence (P62942 whole entry, species assumed): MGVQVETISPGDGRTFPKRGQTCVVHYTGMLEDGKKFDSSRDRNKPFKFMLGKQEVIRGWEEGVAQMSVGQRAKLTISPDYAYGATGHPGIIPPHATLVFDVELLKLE

Row | Compound | pKi
1 | CCCC/C=C(/c1cccnc1)c1cccc([C@H](CCCc2ccccc2)OC(=O)[C@@H]2CCCCN2C(=O)C(=O)c2cc(OC)c(OC)c(OC)c2)c1 [Compound 36] | < 7.52
2 | CCOc1ccccc1-c1cncc([C@H](CCCc2ccccc2)OC(=O)[C@@H]2CCCCN2C(=O)C(=O)c2cc(OC)c(OC)c(OC)c2)c1 [Compound 19] | 7.57
3 | CCOCc1cccc(COCC)c1-c1csc(C(CCN2CCOCC2)OC(=O)[C@@H]2CCCCN2C(=O)C(=O)C(C)(C)COC)c1 (some centres unmarked) [Compound 50] | < 5.00
4 | C=CCC/C=C(\c1ccc([C@@H](CCN2CCOCC2)OC(=O)[C@@H]2CCCCN2C(=O)C(=O)CC(C)C)s1)C1CCOCC1 [Compound 66] | 7.26
5 | CCOc1ccccc1-c1cncc([C@@H](CCCc2ccccc2)OC(=O)[C@@H]2CCCCN2C(=O)C(=O)c2cc(OC)c(OC)c(OC)c2)c1 [Compound 18] | 9.40
6 | CCC/C=C(/c1cccnc1)c1cccc([C@@H](CCCc2ccccc2)OC(=O)[C@@H]2CCCCN2C(=O)C(=O)c2cc(OC)c(OC)c(OC)c2)c1 [Compound 17] | 9.22
7 | COC/C=C(\c1cncc([C@H](OC(=O)[C@@H]2CCCCN2C(=O)C(=O)c2ccco2)/C(C)=C/[C@H]2CC[C@H](O)CC2)c1)C1CCCCC1 [Compound 47] | 7.08
8 | CCOCc1cccc(COCC)c1-c1csc([C@@H](CCN2CCOCC2)OC(=O)[C@@H]2CCCCN2C(=O)C(=O)C(C)(C)C)c1 [Compound 62] | 7.00
9 | CCOCc1cc2ccccc2n1-c1cccc([C@H](OC(=O)[C@@H]2CCCCN2C(=O)C(=O)c2ccco2)/C(C)=C/[C@H]2CC[C@H](O)CC2)c1 [Compound 44] | 7.28
10 | CC/C=C(/c1cccnc1)c1cccc([C@@H](CCCc2ccccc2)OC(=O)[C@@H]2CCCCN2C(=O)C(=O)c2cc(OC)c(OC)c(OC)c2)c1 [Compound 29] | 9.00
11 | C=CCC/C=C(/c1cccnc1)c1ccc([C@@H](OC(=O)[C@@H]2CCCCN2C(=O)C(=O)C(C)(C)COC)/C(C)=C/C2CCN(C)CC2)s1 [Compound 55] | < 5.00
12 | C=CCC/C=C(/c1cccnc1)c1ccc([C@H](OC(=O)[C@@H]2CCCCN2C(=O)C(=O)C(C)(C)COC)/C(C)=C/C2CCN(C)CC2)s1 [Compound 56] | < 5.30
13 | COc1ccccc1-c1cncc([C@@H](CCCc2ccccc2)OC(=O)[C@@H]2CCCCN2C(=O)C(=O)c2cc(OC)c(OC)c(OC)c2)c1 [Compound 15] | 9.00
14 | C=CCC/C=C(/c1cccnc1)c1ccc([C@H](OC(=O)[C@@H]2CCCCN2C(=O)C(=O)C(C)(C)C)/C(C)=C/C2CCN(C)CC2)s1 [Compound 53] | 7.15
15 | CCOc1ccc(OCC)c(-c2cccc([C@@H](CCCc3ccccc3)OC(=O)[C@@H]3CCCCN3C(=O)C(=O)c3cc(OC)c(OC)c(OC)c3)c2)c1 [Compound 8] | 6.00
16 | C=CCC/C=C(/c1cccnc1)c1ccc([C@@H](OC(=O)[C@@H]2CCCCN2C(=O)C(=O)CC(C)C)/C(C)=C/C2CCN(C)CC2)s1 [Compound 71] | 6.44
17 | COc1ccc(C(=O)C(=O)N2CCCC[C@H]2C(=O)O[C@@H](CCCc2ccccc2)c2cncc(-c3ccccc3OC)c2)cc1OC [Compound 14] | 7.92
18 | CCC/C=C(/c1cccnc1)c1cccc([C@H](CCCc2ccccc2)OC(=O)[C@@H]2CCCCN2C(=O)C(=O)c2cc(OC)c(OC)c(OC)c2)c1 [Compound 16] | 5.48
19 | CCC/C=C(\c1cncc([C@@H](OC(=O)[C@@H]2CCCCN2C(=O)C(=O)c2ccc(F)cc2)/C(C)=C/[C@H]2CC[C@H](O)CC2)c1)C1CCCCC1 [Compound 42] | 5.68
20 | CCC/C=C(\c1cccnc1)c1cccc([C@H](CCN2CCOCC2)OC(=O)[C@@H]2CCCCN2C(=O)C(=O)c2cc(OC)c(OC)c(OC)c2)c1 [Compound 31] | 6.89
21 | COc1cc(C(=O)C(=O)N2CCCC[C@H]2C(=O)OC(CCCc2ccccc2)c2cccc(C(=CCCc3ccccc3)c3cccnc3)c2)cc(OC)c1OC (some centres unmarked) [Compound 3] | 6.52
22 | CCOCc1cccc(COCC)c1-c1csc([C@@H](CCN2CCOCC2)OC(=O)[C@@H]2CCCCN2C(=O)C(=O)C(C)(C)C)c1 [Compound 63] | < 5.30
23 | CCOCc1cccc(COCC)c1-c1csc(C(CCN2CCOCC2)OC(=O)[C@@H]2CCCCN2C(=O)C(=O)C(C)(C)COC)c1 (some centres unmarked) [Compound 49] | < 5.00
24 | CCOCc1cc2ccccc2n1-c1cccc([C@H](OC(=O)[C@@H]2CCCCN2C(=O)C(=O)C(C)(C)COC)/C(C)=C/[C@H]2CC[C@H](O)CC2)c1 [Compound 58] | < 5.05

Results, then the compound that gave them:

Row | pKi | Compound
25 | 7.21 | CCC/C=C(\c1cncc([C@H](OC(=O)[C@@H]2CCCCN2C(=O)C(=O)C(C)(C)C(C)C)/C(C)=C/c2ccncc2)c1)C1CCCCC1 [Compound 98]
26 | 8.64 | C=CCC/C=C(\c1ccc([C@H](CCN2CCOCC2)OC(=O)[C@@H]2CCCCN2C(=O)C(=O)C2(C)CCCCC2)s1)C1CCOCC1 [Compound 87]
27 | 7.72 | CCO[C@@H]1CC[C@@H](C)[C@H](C(=O)C(=O)N2CCCC[C@H]2C(=O)O[C@H](CCN2CCOCC2)c2cccc(-n3c(C)ccc3C)c2)C1 [Compound 127]
28 | 5.68 | CCCc1ccc(CCC)n1-c1cccc([C@H](OC(=O)[C@@H]2CCCCN2C(=O)C(=O)C(C)(C)C(C)C)/C(C)=C/c2ccncc2)c1 [Compound 106]
29 | < 5.00 | CCC/C=C(\c1cncc([C@@H](CCN2CCOCC2)OC(=O)[C@@H]2CCCCN2C(=O)C(=O)[C@@H]2C[C@@H](OCC)CN2C(C)=O)c1)C(C)C [Compound 132]
30 | 7.68 | CCCc1ccc(CCC)n1-c1cccc([C@@H](CCN2CCOCC2)OC(=O)[C@@H]2CCCCN2C(=O)C(=O)C(C)(C)C(C)C)c1 [Compound 103]
31 | 6.30 | CCCC/C=C(\c1cncc([C@@H](OC(=O)[C@@H]2CCCCN2C(=O)C(=O)C(C)C)/C(C)=C/C2CCN(C)CC2)c1)C1CCCCC1 [Compound 74]
32 | 6.64 | CCOCc1cccc(COCC)c1-c1cncc([C@H](CCN2CCOCC2)OC(=O)[C@@H]2CCCCN2C(=O)C(=O)C2(C)CCCCC2)c1 [Compound 80]
33 | 6.06 | CCCc1ccc(CCC)n1-c1cccc([C@H](CCN2CCOCC2)OC(=O)[C@@H]2CCCCN2C(=O)C(=O)C(C)(C)C(C)C)c1 [Compound 104]
34 | 6.50 | CCOCc1cccc(COCC)c1-c1ccc([C@@H](CCN2CCOCC2)OC(=O)[C@@H]2CCCCN2C(=O)C(=O)CC(C)C)s1 [Compound 83]
35 | 7.05 | CCC/C(=C/COC)c1cncc(C(OC(=O)[C@@H]2CCCCN2C(=O)C(=O)[C@@H]2CCCC[C@H]2C)/C(C)=C/C2CCOCC2)c1 (some centres unmarked) [Compound 131]
36 | 9.00 | C=CCC/C=C(/c1cccnc1)c1ccc([C@@H](CCN2CCOCC2)OC(=O)[C@@H]2CCCCN2C(=O)C(=O)C2(C)CCCCC2)s1 [Compound 85]
37 | 6.89 | COC/C=C(\c1cncc([C@H](CCN2CCOCC2)OC(=O)[C@@H]2CCCCN2C(=O)C(=O)C(C)(C)C(C)C)c1)C(C)C [Compound 116]
38 | 5.92 | CCC/C=C(\c1cncc([C@@H](CCN2CCOCC2)OC(=O)[C@@H]2CCCCN2C(=O)C(=O)[C@@H]2C[C@H](C(C)(C)OC)CC[C@H]2C)c1)C(C)C [Compound 129]
39 | 7.49 | CCCCc1ccc(C)n1-c1cccc([C@@H](CCN2CCOCC2)OC(=O)[C@@H]2CCCCN2C(=O)C(=O)C(C)(C)C(C)C)c1 [Compound 122]
40 | 7.15 | COC/C=C(\c1cncc([C@@H](CCN2CCOCC2)OC(=O)[C@@H]2CCCCN2C(=O)C(=O)[C@@H]2CCCC[C@H]2C)c1)C(C)C [Compound 118]
41 | 7.55 | C=CCC/C=C(/c1cccnc1)c1ccc([C@@H](CCN2CCOCC2)OC(=O)[C@@H]2CCCCN2C(=O)C(=O)C2(C)CCCCC2)s1 [Compound 96]
42 | 7.49 | CCC/C=C(/c1cccnc1)c1cccc(C(CCN2CCOCC2)OC(=O)[C@@H]2CCCCN2C(=O)C(=O)C(C)(C)C(C)C)c1 (some centres unmarked) [Compound 92]
43 | 6.31 | CCC/C=C(\c1cncc([C@@H](CCN2CCOCC2)OC(=O)[C@@H]2CCCCN2C(=O)C(=O)[C@@H]2C[C@H](OCC)CC[C@H]2C)c1)C(C)C [Compound 130]
44 | 6.73 | CCCC/C=C(\c1cncc([C@H](OC(=O)[C@@H]2CCCCN2C(=O)C(=O)C(C)C)/C(C)=C/C2CCN(C)CC2)c1)C1CCCCC1 [Compound 75]
45 | 7.80 | CCOCc1cc2ccccc2n1-c1cccc([C@@H](CCN2CCOCC2)OC(=O)[C@@H]2CCCCN2C(=O)C(=O)C(C)(C)C(C)C)c1 [Compound 94]
46 | 5.29 | CCCc1ccc(CCC)n1-c1cccc(C(OC(=O)[C@@H]2CCCCN2C(=O)C(=O)[C@@H]2CCCC[C@H]2C)/C(C)=C/c2ccncc2)c1 (some centres unmarked) [Compound 108]
47 | < 5.00 | CCCc1ccc(CCC)n1-c1cccc(C(OC(=O)[C@@H]2CCCCN2C(=O)C(=O)C(C)(C)C(C)C)/C(C)=C/c2ccncc2)c1 (some centres unmarked) [Compound 109]
48 | 6.15 | CCOCc1cccc(COCC)c1-c1ccc([C@@H](CCN2CCOCC2)OC(=O)[C@@H]2CCCCN2C(=O)C(=O)c2cc(COC)ccc2C)s1 [Compound 102]
49 | 7.10 | CCCCc1ccc(C)n1-c1cccc([C@@H](CCN2CCOCC2)OC(=O)[C@@H]2CCCCN2C(=O)C(=O)[C@@H]2CCCC[C@H]2C)c1 [Compound 120]
50 | 7.19 | CCOc1ccc(OCC)c(-c2cncc([C@H](CCCc3ccccc3)OC(=O)[C@@H]3CCCCN3C(=O)C(=O)c3cc(OC)c(OC)c(OC)c3)c2)c1 [Compound 88]
